Laboratory results as given in patent US20240285808A1, “MOLECULAR PROBES FOR IN VIVO DETECTION OF ALDEHYDES” (The General Hospital Corporation, priority 2021, published 2024).

What was measured:
[1] = system: lungs of bleomycin-injured mice; test: PET probe lung uptake in naïve and bleomycin-injured mice (gamma counter); assay type: in vivo, mouse; details: 90 min post injection; for Lung uptake, Bleo: 14 days post bleomycin injury; for Lung uptake, Naïve: naïve mice
Method: C57Bl/6 adult male mice at 8 weeks of age (Jackson Laboratories, Barr Harbor, ME) received a single intratracheal dose of bleomycin, 1 units/kg body weight (50 μL total volume) (Fresenius Kabi, Lake Zurich, Il) as previously described in Desogere, P., et al. Optimization of a Collagen-Targeted PET Probe for Molecular Imaging of Pulmonary Fibrosis. J Nuc Med 58, 1991-1996 (2017).
Imaging and Biodistribution Study for Selectivity of Allysine-Reactive Probes In Vivo:
(§1) Bleomycin-injured mice at 14 days after injury were sedated and then injected with Compound 19, Compound 20, Gd-CHyd (Akam, E. A., et al. Improving the reactivity of hydrazine-bearing MRI probes for in vivo imaging of lung fibrogenesis. Chemical Science 11, 224-231 (2020)) formulated to contain an equal concentration of Eu-DOTA as a non-binding control probe. Animals were then euthanized at 30 minutes after injection. The lungs were harvested separately, along with blood, tail and liver. Each sample was analyzed by ICP-MS for gadolinium and europium content, and the lungs were also assessed for hydroxyproline content. Selectivity is reported as the ratio of Gd to Eu. All animals were dosed via tail vein injection at 100 nmol/g body weight from 30 mM solutions of gadolinium probes with 30 mM Eu-DOTA as determined by ICP-MS. For PET probes, Compounds 1-8 were radiolabeled with either ^68Ga or ^64Cu and the dose was delivered as a bolus injection through tail vein. Animals were euthanized 90 min post injection and their organs and tissues were harvested and counted using a gamma counter. For an imaging study with a PET tracer, animals were injected inside PET/MRI scanner and scanned dynamically for 60 min under anesthesia. The animals were euthanized 90 min post injection and their organs and tissues were counted using a gamma counter. The biodistribution of Mn-15, Mn-16, Mn-17, and Mn-18 was determined by injecting a mixture of ^52/nat complex into naïve mice and activity in each tissue were measured 24 hours post injection.

[2] = system: lungs of bleomycin-injured mice; test: ^68Ga-7 PET/MRI imaging and organ counts in bleomycin-injured and naïve mice; assay type: in vivo, mouse; details: for probe uptake in lungs, PET scans: 55 min p.i.; for probe uptake in lungs, organ counts: 90 min p.i.
Method: as §1
Probe ^68Ga-7 was synthesized in 5 steps. Male C57BL/6 mice were intratracheally instilled with bleomycin (1.2 U/kg) and imaged after 14 days when allysine levels peak in the lung. Bleomycin injured mice or age-matched controls were placed in a micro-PET/MRI scanner and administered ^68Ga-7 as a bolus via the lateral tail vein and dynamically imaged for 60 minute. At 90 min p.i. animals were euthanized, and their organs were harvested for gamma counting. After gamma counting, lungs were flash-frozen and later analyzed for hydroxyproline (total collagen, fibrosis measure) and allysine content.

[3] = system: liver of CCl4 injured mice; assay type: in vivo, mouse; details: CCl4 injured mice
Method: CCl4 Liver Fibrosis Model:
Male C57BL/6 mice (Charles River Laboratories, Wilmington, MA) were treated with carbon tetrachloride for 12 weeks (0.1 ml of 20% CCl4 in olive oil the first week, 30% the second week, and 40% from weeks 3-12) by oral gavage, 2-3 times per week. Control mice were fed vehicle (olive oil) only.
A total of 53 C57BL/6 mice were included to study CCl4 induced hepatic fibrosis: • A. CCl4 for 12 weeks (n=20). Each mouse was imaged with probe 1 and then imaged again 24 hours later with probe 2. Probe 1 and Probe 2 were randomly chosen from GdDOTA, GdCHyd, Mn-12, Gd-9 and Gd-10. • B. Vehicle treated control (n=20). Each mouse was imaged with probe 1 and then imaged again 24 hours later with probe 2. Probe 1 and Probe 2 were randomly chosen from GdDOTA, Mn-12, GdCHyd, Gd-9, Gd-10. • C. CCl4 for 12 weeks (n=3, another 3 pair-wise comparison have been done in group A). Each mouse was imaged with probe 1 and then imaged again 24 hours later with probe 2. […] Each mouse was imaged with probe 1 and then imaged again 24 hours later with probe 2. Probe 1 and Probe 2 were randomly choosing from Gd-9 and Gd-10. • E. CCl4 for 12 weeks (n=3). Each mouse was imaged with Gd-9. After 24 hours, the same mouse was first injected with 1000 μmol/kg of Yb-9 and then injected with 100 μmol/kg of Gd-9 15 min after the Yb-9 injection.
Animals were anesthetized with isoflurane (1-2%) and placed in a specially designed cradle with body temperature maintained at 37° C. The inhaled isoflurane level was adjusted to maintain a respiration rate of 60±5 breaths per minute. The tail vein was cannulated for intravenous (i.v.) delivery of the contrast agent while the animal was positioned in the scanner. Imaging was performed at 4.7 T using a small bore animal scanner with a custom-built volume coil. Mice were imaged with a dose of 100 μmol/kg from 30 mM stock solution of Gd or Mn complex.
For mice liver imaging, a series of baseline images (3D T1 weighted fast low angle shot magnetic resonance imaging (FLASH)) were first acquired (repetition time/echo time=15/2 ms; flip angle, 30°; field of view, 48×30 mm^2; matrix size, […]; slice thickness, 0.25 mm; acquisition time, 3 minutes 20 seconds), then a bolus of Gd or Mn complex was administered i.v. and imaging performed for a period of 45 min p.i. with the repetition acquisition of 3D T1 weighted FLASH sequences. Following the imaging session, animals were sacrificed (75 min p.i.) and liver tissue was subjected to histopathologic analysis.
For liver imaging analysis, a region of interest (ROI) was manually traced encompassing the liver parenchyma while avoiding major blood vessels. A second ROI was placed on the dorsal muscle visible in the same image slice to quantify the signal intensity in the muscle for comparison. Seven ROIs were placed in the field of view without any tissue (air) to measure the variation in background signal. More than 20 axial slices per mouse across the entire liver were analyzed in this fashion. […] Contrast to noise ratio (CNR) was calculated by measuring the difference in signal intensity (SI) between liver and muscle and normalizing to the standard deviation of the signal in the air, eq 21. ΔCNR was calculated by subtracting CNR measured prior to probe injection (CNRPre) from CNR measured after injection (CNRPost), eq 22. […]

[4] = target: T1, BSA-ALD (oxidized bovine serum albumin containing allysine aldehyde groups) (Bos taurus, UniProt P02769); test: Relaxivity measurements with BSA-Ald; assay type: binding; details: 1.4 T, 37° C., BSA-Ald 10 mg/mL
T1 construct: made in house; host or cells: no expression host: BSA oxidised chemically with sodium ascorbate, ferric chloride and H2O2, then desalted on PD-10
Method: Preparation of Allysine Containing Bovine Serum Albumin, BSA-ALD:
To a solution of bovine serum albumin (BSA) (100 mg) dissolved in phosphate buffered saline (4 mL, pH 7.4, 0.25 mM), sodium ascorbate (20 mg), ferric chloride (120 μL, 10 mM) and 20 μL H2O2 (30% w) were added. The reaction was stirred at 37° C. for 24 hours, and sodium ascorbate (20 mg) was added repeatedly every 8 hours. After the reaction, protein was purified using PD-10 Sephadex G25 desalting columns (GE Healthcare), eluted with PBS. Protein concentration was assessed using the ‘BCA Protein Assay Kit’ (Thermo Scientific). Protein carbonyl concentration was determined by ‘Protein Carbonyl Content Assay Kit’ (Sigmal-Aldrich).
Alternatively, preparation of BSA^Ald and binding of Gd^3+ probe to protein was carried out according to modified procedures. To a solution of bovine serum albumin (BSA) (100 mg) dissolved in phosphate buffered saline (4 mL, pH 7.4, 0.25 mM) was added sodium ascorbate (20 mg), ferric chloride (120 μL, 10 mM) and 20 μL H2O2 (30% w). The reaction was stirred at 37° C. for 24 h, and sodium ascorbate (20 mg) was added repeatedly every 8 h. After 24 h, the protein was purified using PD-10 Sephadex G25 desalting columns (GE Healthcare), eluted with PBS. Protein concentration was assessed using the ‘Micro BCA Protein Assay Kit’ (Thermo Scientific, 23235). Protein carbonyl concentration was determined by ‘Protein Carbonyl Content Assay Kit’ (Sigma-Aldrich, MAK094-1KT). […] The protein solutions were kept at a concentration of 20 mg/mL for further use.
(§2) BSA-ALD (10 mg/mL) or BSA (10 mg/mL) were treated for 24 hours at 37° C. with the corresponding Gd or Mn complex at a range of concentrations (0.01-0.2 mM), with a total volume of 300 μL maintained for all samples. After 24 hours, an aliquot of the solution (50 μL) was used for longitudinal (T1) relaxation measurements, recorded using a Bruker mq60 Minispec at 1.41 T and 37° C. Longitudinal (T1) relaxation times were measured via an inversion recovery experiment using 10 inversions of duration ranging between 0.05×T1 and 10×T1. Solutions (concentration range: 0.1 mM-1.0 mM) in PBS were run in parallel. To measure the relaxivity of BSA-bound species, sodium cyanoborohydride (10 mg) was added to the solution to irreversibly bind the probe to the protein. After a further 2h incubation at 37° C., protein-bound and protein-free solutions were separated by ultrafiltration. Then 200 μL PBS was added to the residue to dissolve the protein. Longitudinal (T1) relaxation times for the bounded species were measured using a Bruker mq60 Minispec at 1.41 T and 37° C. After the measurement, concentration of corresponding metal ion (Gd/Mn) in the residue and filter were both determined using an Agilent 8800 ICP-MS system. Relaxivity (r1) was determined from the slope of a plot of 1/T1 vs metal concentration for 5 concentrations.

[5] = target: bovine serum albumin (BSA) (Bos taurus, UniProt P02769); test: Relaxivity measurements with BSA; assay type: binding; details: 1.4 T, 37° C., BSA 10 mg/mL
Method: as §2

[6] = Relaxivity measurements in PBS; assay type: physicochemical; details: 1.4 T, 37° C.
Method: as §2

T1 sequence (P02769 25-607): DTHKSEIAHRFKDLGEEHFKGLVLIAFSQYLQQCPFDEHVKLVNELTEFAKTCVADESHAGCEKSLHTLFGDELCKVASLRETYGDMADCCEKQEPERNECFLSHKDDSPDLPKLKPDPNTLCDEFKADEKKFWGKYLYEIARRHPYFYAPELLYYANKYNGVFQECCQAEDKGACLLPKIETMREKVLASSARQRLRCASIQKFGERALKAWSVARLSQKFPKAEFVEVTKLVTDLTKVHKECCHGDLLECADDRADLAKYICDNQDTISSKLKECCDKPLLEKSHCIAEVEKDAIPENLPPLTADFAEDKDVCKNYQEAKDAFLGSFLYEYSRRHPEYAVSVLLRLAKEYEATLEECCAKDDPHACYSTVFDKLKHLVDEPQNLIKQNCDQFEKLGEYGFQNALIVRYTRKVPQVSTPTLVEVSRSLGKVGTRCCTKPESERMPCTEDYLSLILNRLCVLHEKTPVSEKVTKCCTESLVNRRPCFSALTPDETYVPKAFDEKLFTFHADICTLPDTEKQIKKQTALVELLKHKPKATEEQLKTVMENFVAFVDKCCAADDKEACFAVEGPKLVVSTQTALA
Sequence of bovine serum albumin (BSA) (P02769 25-607): as above

| Molecule | Lung uptake, Bleo [1] | Lung uptake, Naïve [1] | other results |
| --- | --- | --- | --- |
| NC(Cn1cccc1)C(=O)NCCOCCOCCOCCNC(=O)CN1CCN(CC(=O)[O-])CCN(CC(=O)[O-])CC1.[68Ga+3] (stereo not shown) [^68Ga-2] | 0.96 % ID/g | 0.45 % ID/g | – |
| NNC(CCC(=O)NCCOCCOCCOCCNC(=O)CN1CCN(CC(=O)[O-])CCN(CC(=O)[O-])CC1)C(=O)O.[68Ga+3] (stereo not shown) [^68Ga-7] | – | – | probe uptake in lungs, PET scans ([2]; Bleomycin injured mice (n = 5)): 0.51 % ID/cc; probe uptake in lungs, organ counts ([2]; Bleomycin injured mice (n = 5)): 2.65 % ID/g; probe uptake in lungs, PET scans ([2]; Naïve mice (n = 4)): 0.23 % ID/cc; probe uptake in lungs, organ counts ([2]; Naïve mice (n = 4)): 0.886 % ID/g; uptake in bleomycin injured lung compared to ^68Ga-NODAGA-indole ([2]; mouse, in vivo): twice the uptake; blood clearance and elimination ([2]; naïve animal): rapid blood clearance |
| NN1CCN(C(=O)CCC(C(=O)[O-])N2CCN(CC(=O)[O-])CCN(CC(=O)[O-])CCN(C(CCC(=O)N3CCN(N)CC3)C(=O)[O-])CC2)CC1.[Yb+3] (stereo not shown) [Yb-9] | – | – | blocking of Gd-9 liver MRI enhancement ([3]; 10-fold dose (1000 μmol/kg) 15 minutes before Gd-9): completely eliminated liver MRI enhancement with Gd-9 |
| NNC(=O)C(N)CCC(=O)NCCOCCOCCOCCNC(=O)CN1CCN(CC(=O)[O-])CCN(CC(=O)[O-])CC1.[68Ga+3] (stereo not shown) [^68Ga-5] | 0.88 % ID/g | 0.30 % ID/g | – |
| CNCCC1=NN(CC(=O)NCCOCCOCCOCCNC(=O)CN2CCN(CC(=O)[O-])CCN(CC(=O)[O-])CC2)C(=O)C1.[68Ga+3] [^68Ga-6] | 1.32 % ID/g | 0.84 % ID/g | – |
| Cc1cc(O)n(CC(=O)NCCOCCOCCOCCNC(=O)CN2CCN(CC(=O)[O-])CCN(CC(=O)[O-])CC2)n1.[68Ga+3] [^68Ga-3] | 2.13 % ID/g | 0.82 % ID/g | – |
| NN1CCN(C(=O)CCOCCOCCOCCOCCNC(=O)CN2CCN(CC(=O)[O-])CCN(CC(=O)[O-])CC2)CC1.[68Ga+3] [^68Ga-1] | 0.99 % ID/g | 0.27 % ID/g | – |
| O=C([O-])CN1CCN(CC(=O)[O-])CCN(CC(=O)NCCOCCOCCOCCNC(=O)CN2C(=O)CSC2=S)CC1.[64Cu+2] [^64Cu-4] | 0.66 % ID/g | 0.38 % ID/g | – |
| O=C([O-])CN1CCN(CC(=O)[O-])CCN(CC(=O)NCCOCCOCCOCCNC(=O)CN2C(=O)CSC2=S)CC1.[68Ga+3] [^68Ga-4] | 0.61 % ID/g | 0.24 % ID/g | – |
| GdDOTA [reference compound] | – | – | r1, +BSA-Ald [4]: 4.0 mM⁻¹ s⁻¹; r1, +BSA [5]: 4.0 mM⁻¹ s⁻¹; liver enhancement ([3]; 45 min p.i.): no significant liver enhancement; ΔCNR (liver to muscle) ([3]; 45 min post injection, 100 μmol/kg i.v., group mean): 0.1 ± 0.2; r1, PBS [6]: 4.0 mM⁻¹ s⁻¹ |
| NC(Cn1cccc1)C(=O)NCCOCCOCCOCCNC(=O)CN1CCN(CC(=O)[O-])CCN(CC(=O)[O-])CC1.[64Cu+2] (stereo not shown) [^64Cu-2] | 0.42 % ID/g | 0.26 % ID/g | – |
